According to patent publication US20210363170A1, “4'-THIO-NUCLEOTIDE AND -NUCLEOSIDE PRODRUGS FOR THE TREATMENT OF CANCER” (Southern Research Institute, priority 2018, published 2021):
Where two headings read alike, the source gives them in different places.

Experiments:
Format in all cases: cell-based
DNMT-1 = test: Western blot analysis of DNMT-1 in CEM cells; settings: DNMT-1 depletion in CEM cells, 96 hours
Experimental: Cells were treated with serial dilutions of each compound (starting 100 uM for HCT-116 and NCI-H23 cells, and 20 uM for KG-1a and CCRF-CEM cells) or with DMSO as control for 96 hours. Cell lysates were collected and proteins were separated with a SDS-PAGE gel, transferred to a nitrocellulose membrane, blocked in 5% non-fat milk in TBS-T, and probed with anti DNMT-1 (1:7000) rabbit polyclonal antibodies (cat #ab19905, Abcam) in 5% non-fat milk in TBS-T overnight. Membranes were washed three times with TBS-T. The anti-rabbit IgG (7074p2, Cell Signaling) secondary antibody was added at a concentration of 1:5000 in 5% non-fat milk in TBS-T for two hours in room temperature. Membranes were then washed three times with TBS-T, 5 minutes each time. Membranes were then incubated with SuperSignal West Pico Chemiluminescent Substrate (#34080 Thermo) and exposed onto film. Membranes were stripped with stripping buffer (#21059, Thermo) and re-probed with mouse anti tubulin 1:10,000 (T9026, Sigma) and anti-mouse IgG 1:5,000 (70′76p2, Cell Signaling).

KG-1a cells = test: Cell viability assay (CellTiter Glo, 72 hours) in KG-1a cells
Experimental: (§1) KG1a (CCL-246.1, ATCC) and CCRF-CEM (CCL-199, ATCC) cells were grown in RPMI-1640 media containing 10% FBS in T-75 flasks to a density of 1×10^6 cells per mL. Exponentially gown cells were used for the assay. Day 1: 7.5×10^3 cells were seeded in each well of 96 well plate. Day 2: Cells were treated with serial dilutions of each compound (starting 20 uM) or with DMSO as control for 72 hours. Day 5: CellTiter Glo (G9241, Promega) was added to the media of each well and measured by plate reader (Synergy 4, Biotek). Data analysis: Using GraphPad Prism 7 (GraphPad).

CCRF-CEM cells = test: Cell viability assay (CellTiter Glo, 72 hours) in CEM cells
Experimental: as §1

[1] = Homo sapiens, KG-1a, 72 h, read-out: Cell Line IC50 (μM) KG-1a
[2] = Homo sapiens, CCRF-CEM, 72 h, read-out: Cell Line IC50 (μM) CEM
[3] = read-out: Cell Line IC50 (μM) KG-1a
[4] = read-out: Cell Line IC50 (μM) CEM

Compound | IC50 (DNMT-1) | IC50 (KG-1a cells; [1]) | IC50 (CCRF-CEM cells; [2]) | further results
CCC(CC)COC(=O)[C@H](C)NP(=O)(OC[C@H]1S[C@@H](n2cnc(N)nc2=O)CC1O)Oc1cccc2ccccc12 (single isomer, unassigned) [Compound 11 Diastereomer 2] | 500 nM | 0.6 µM | 0.08 µM | –
C[C@H](NP(=O)(OC[C@H]1S[C@@H](n2cnc(N)nc2=O)CC1O)Oc1cccc2ccccc12)C(=O)OCc1ccccc1 (single isomer, unassigned) [Compound 9 Diastereomer 2] | – | – | – | IC50 (DNMT-1; listed as 9 Diastereomer 2): 1400 nM; IC50 (KG-1a cells; listed as 9 Diastereomer 2, read-out: Cell Line IC50 (μM) KG-1a): 0.4 µM; IC50 (CCRF-CEM cells; listed as 9 Diastereomer 2, read-out: Cell Line IC50 (μM) CEM): 0.2 µM
CC(C)OC(=O)[C@H](C)N[P@](=O)(OC[C@H]1S[C@@H](n2ccc(N)nc2=O)CC1O)Oc1ccccc1 (stereo partly drawn) [Compound 15] | 330 nM | 0.9 µM | 0.37 µM | –
CCC(CC)COC(=O)[C@H](C)N[P@](=O)(OC[C@H]1S[C@@H](n2ccc(N)nc2=O)CC1O)Oc1ccccc1 (stereo partly drawn) [Compound 14] | 1000 nM | 0.62 µM | 0.15 µM | –
C[C@H](NP(=O)(OC[C@H]1S[C@@H](n2cnc(N)nc2=O)CC1O)Oc1ccccc1)C(=O)OC1CCCC1 (single isomer, unassigned) [Compound 8 Diastereomer 1] | – | 0.6 µM | 2.08 µM | IC50 (DNMT-1; listed as 8 Diastereomer 1): 330 nM
CC(C)COC(=O)[C@H](C)N[P@](=O)(OC[C@H]1S[C@@H](n2cnc(N)nc2=O)C[C@@H]1O)Oc1ccccc1 [Compound 2, Isobutyl ((S)-(((2R,3S,5R)-5-(4-amino-2-oxo-1,3,5-triazin-1(2H)-yl)-3-hydroxytetrahydrothiophen-2-yl)methoxy)(phenoxy)phosphoryl)-L-alaninate] | 800 nM | 1.34 µM | 0.24 µM | –
C[C@H](NP(=O)(OC[C@H]1S[C@@H](n2cnc(N)nc2=O)CC1O)Oc1cccc2ccccc12)C(=O)OCc1ccccc1 (single isomer, unassigned) [Compound 9 Diastereomer 1] | – | – | – | IC50 (DNMT-1; listed as 9 Diastereomer 1): 300 nM; IC50 (KG-1a cells; listed as 9 Diastereomer 1, read-out: Cell Line IC50 (μM) KG-1a): 1.1 µM; IC50 (CCRF-CEM cells; listed as 9 Diastereomer 1, read-out: Cell Line IC50 (μM) CEM): 0.5 µM
C[C@H](NP(=O)(OC[C@H]1S[C@@H](n2cnc(N)nc2=O)CC1O)Oc1ccccc1)C(=O)OC1CCCC1 (single isomer, unassigned) [Compound 8 Diastereomer 2] | – | – | – | IC50 (DNMT-1; listed as 8 Diastereomer 2): 450 nM; IC50 (KG-1a cells; [3]): 1.04 µM; IC50 (CCRF-CEM cells; [4]): 1.65 µM
CC(C)OC(=O)[C@H](C)NP(=O)(OC[C@H]1S[C@@H](n2cnc(N)nc2=O)C[C@@H]1O)Oc1cccc2ccccc12 (single isomer, unassigned) [Compound 12 Diastereomer 2] | – | – | – | IC50 (DNMT-1; listed as 12 Diastereomer 2): 1000 nM; IC50 (KG-1a cells; [3]): 0.7 µM; IC50 (CCRF-CEM cells; listed as 12 Diastereomer 2, read-out: Cell Line IC50 (μM) CEM): 0.1 µM
C[C@H](N[P@](=O)(OC[C@H]1S[C@@H](n2cnc(N)nc2=O)C[C@@H]1O)Oc1ccccc1)C(=O)OCc1ccccc1 [Compound 1, Benzyl ((S)-(((2R,3S,5R)-5-(4-amino-2-oxo-1,3,5-triazin-1(2H)-yl)-3-hydroxytetrahydrothiophen-2-yl)methoxy)(phenoxy)phosphoryl)-L-alaninate] | 1200 nM | 0.92 µM | 0.13 µM | –
CCOC(=O)[C@H](C)N[P@](=O)(OC[C@H]1S[C@@H](n2cnc(N)nc2=O)C[C@@H]1O)Oc1ccccc1 [Compound 6, Ethyl ((S)-(((2R,3S,5R)-5-(4-amino-2-oxo-1,3,5-triazin-1(2H)-yl)-3-hydroxytetrahydrothiophen-2-yl)-methoxy)(phenoxy)-phosphoryl)-L-alaninate] | 350 nM | 0.31 µM | 1.73 µM | –
CC(C)COC(=O)[C@H](C)NP(=O)(OC[C@H]1S[C@@H](n2cnc(N)nc2=O)CC1O)Oc1cccc2ccccc12 (single isomer, unassigned) [Compound 10 Diastereomer 2] | – | – | – | IC50 (DNMT-1; listed as 10 Diastereomer 2): 800 nM; IC50 (KG-1a cells; [3]): 0.3 µM; IC50 (CCRF-CEM cells; [4]): 0.2 µM
Nc1ccn([C@H]2C[C@@H](O)[C@@H](CO)S2)c(=O)n1 [T-dCyd, 4-amino-1-[(2R,4R,5R)-4-hydroxy-5-(hydroxymethyl)thiolan-2-yl]pyrimidin-2-one, reference compound] | 470 nM | – | – | IC50 (KG-1a cells; Homo sapiens, read-out: Cell Line IC50 (μM) KG-1a): 0.48 µM; IC50 (CCRF-CEM cells; Homo sapiens, CCRF-CEM, read-out: Cell Line IC50 (μM) CEM): 0.08 µM
CC(C)COC(=O)[C@H](C)NP(=O)(OC[C@H]1S[C@@H](n2cnc(N)nc2=O)CC1O)Oc1cccc2ccccc12 (single isomer, unassigned) [Compound 10 Diastereomer 1] | – | 0.3 µM | 0.2 µM | IC50 (DNMT-1; listed as 10 Diastereomer 1): 600 nM
CC(C)OC(=O)[C@H](C)N[P@](=O)(OC[C@H]1S[C@@H](n2cnc(N)nc2=O)C[C@@H]1O)Oc1ccccc1 [Compound 4, Isopropyl ((S)-(((2R,3S,5R)-5-(4-amino-2-oxo-1,3,5-triazin-1(2H)-yl)-3-hydroxytetrahydrothiophen-2-yl)methoxy)(phenoxy)phosphoryl)-L-alaninate] | 850 nM | 0.57 µM | 0.24 µM | –
C[C@H](N[P@](=O)(OC[C@H]1S[C@@H](n2cnc(N)nc2=O)C[C@@H]1O)Oc1ccccc1)C(=O)OCc1ccc([N+](=O)[O-])o1 [Compound 7, (5-nitrofuran-2-yl)methyl ((S)-(((2R,3S,5R)-5-(4-amino-2-oxo-1,3,5-triazin-1(2H)-yl)-3-hydroxytetrahydro-thiophen-2-yl)-methoxy)(phenoxy)-phosphoryl)-L-alaninate] | 220 nM | 0.76 µM | 1.71 µM | –
CCC(CC)COC(=O)[C@H](C)NP(=O)(OC[C@H]1S[C@@H](n2cnc(N)nc2=O)C[C@@H]1O)Oc1cccc2ccccc12 (single isomer, unassigned) [Compound 11 Diastereomer 1] | 500 nM | 0.6 µM | 0.2 µM | –
CC(C)OC(=O)[C@H](C)NP(=O)(OC[C@H]1S[C@@H](n2cnc(N)nc2=O)C[C@@H]1O)Oc1cccc2ccccc12 (single isomer, unassigned) [Compound 12 Diastereomer 1] | – | 0.6 µM | – | IC50 (DNMT-1; listed as 12 Diastereomer 1): 800 nM; IC50 (CCRF-CEM cells; listed as 12 Diastereomer 1, read-out: Cell Line IC50 (μM) CEM): 0.3 µM
COC(=O)[C@H](C)N[P@](=O)(OC[C@H]1S[C@@H](n2cnc(N)nc2=O)C[C@@H]1O)Oc1ccccc1 [Compound 5, Methyl ((S)-(((2R,3S,5R)-5-(4-amino-2-oxo-1,3,5-triazin-1(2H)-yl)-3-hydroxytetrahydrothiophen-2-yl)-methoxy)(phenoxy)-phosphoryl)-L-alaninate] | 610 nM | 1.67 µM | 2.06 µM | –
